Source: patent US20090110718A1, “Derivatives of tiacumicin B as anti-cancer agents” (Echem Hightech Co., Ltd., priority 2007, published 2009)

Tests used:
Type in all cases: cell-based, human
MCF7 breast cancer cells = assay: Cell viability assay (MTT), MCF7; conditions: for IC50: 72 hrs treatment, 1 to 10 μM tested, MTT, ± SD, read-out: Observed IC50 for MCF7 breast cancer cells
Experimental: (§1) Experiments were performed using different cancer cell-lines, which were supplied by the American Type Culture Collection (ATCC), Rockville, Md., USA, and maintained in the recommended culturing media. The detailed steps and condition for cell culture are described as the following: MCF7, human breast adenocarcinoma: Minimum essential medium (Eagle) with 2 mM L-glutamine and Earle's BSS adjusted to contain 1.5 g/L sodium bicarbonate, 0.1 mM non-essential amino acids and 1.0 mM sodium pyruvate and supplemented with 0.01 mg/ml insulin, 90%; fetal bovine serum, 10%. […] All test samples were dissolved in absolute ethanol and serial diluted to the testing concentrations. For blank sample, absoluted ethanol was used. The final organic solvent content for all cell assays were less than or equal to 0.1%. The cell viability assay was conducted by using the method described by J. Carmichael, et al in Cancer Research 47:936 (1987). All the cells were seeded into 96-well microtitre plates and incubated at 37° C. under 5% CO2 atmosphere. For MCF7, T-47D and WS1, 3000 cells/100 μl/well were used and for HeLa, 1000 cells/100 μl/well were used. […] After additional 72 hours of incubation at 37° C. under 5% CO2 atmosphere, the cell were then collected and evaluated using MTT assay to assess the cell viability by using the method mentioned above. […] Cultures containing 3000 cells per well were treated with 0, 1, 2.5, 5 and 10 μM (final concentration) of the test samples and the viable cells were counted after 72 hrs. […] In both FIG. 1 and FIG. 2, error bars are indicated the estimated standard deviation based on three experiments.

[1] = tested on: HeLa cervical cancer cells; assay: Cell viability assay (MTT), HeLa; conditions: for IC50: 72 hrs treatment, 1 to 10 μM tested, MTT, ± SD, read-out: Observed IC50 for HeLa cervial cancer cells
Experimental: Experiments were performed using different cancer cell-lines, which were supplied by the American Type Culture Collection (ATCC), Rockville, Md., USA, and maintained in the recommended culturing media. The detailed steps and condition for cell culture are described as the following: HeLa, humen cervical adenocarcinoma: Minimum essential medium (Eagle) with 2 mM L-glutamine and Earle's BSS adjusted to contain 1.5 g/L sodium bicarbonate, 0.1 mM non-essential amino acids and 1.0 mM sodium pyruvate and supplemented with 0.01 mg/ml insulin, 90%; fetal bovine serum, 10%. […] All test samples were dissolved in absolute ethanol and serial diluted to the testing concentrations. For blank sample, absoluted ethanol was used. The final organic solvent content for all cell assays were less than or equal to 0.1%. The cell viability assay was conducted by using the method described by J. Carmichael, et al in Cancer Research 47:936 (1987). All the cells were seeded into 96-well microtitre plates and incubated at 37° C. under 5% CO2 atmosphere. For MCF7, T-47D and WS1, 3000 cells/100 μl/well were used and for HeLa, 1000 cells/100 μl/well were used. […] After additional 72 hours of incubation at 37° C. under 5% CO2 atmosphere, the cell were then collected and evaluated using MTT assay to assess the cell viability by using the method mentioned above. Error bars are indicated the estimated standard deviation based on three experiments.

[2] = tested on: T-47D breast cancer cells; assay: Cell viability assay (MTT), T-47D; conditions: 72 hrs treatment, 1 to 10 μM tested, ± SD, read-out: Observed IC50 for T-47D breast cancer cells
Experimental: as §1, with “media.” for “media. The detailed steps and condition for cell culture are described as the following: MCF7, human breast adenocarcinoma: Minimum essential medium (Eagle) with 2 mM L-glutamine and Earle's BSS adjusted to contain 1.5 g/L sodium bicarbonate, 0.1 mM non-essential amino acids and 1.0 mM sodium pyruvate and supplemented with 0.01 mg/ml insulin, 90%; fetal bovine serum, 10%.”

IC50 (MCF7 breast cancer cells)	IC50 [1]	IC50 [2]	Molecule	IC50 value compared with tamoxifen, MCF7 (MCF7 breast cancer cells; statement in words)	IC50 value compared with tamoxifen, HeLa ([1]; statement in words)
7.06 ± 0.83 µM	5.88 ± 0.42 µM	3.99 ± 0.58 µM	CCc1c(Cl)c(O)c(Cl)c(O)c1C(=O)O[C@@H]1[C@@H](O)[C@@H](OC)[C@@H](OC/C2=C\C=C\CC(O)/C(C)=C/C(CC)C(O[C@@H]3OC(C)(C)[C@H]4OC(c5ccccc5C)O[C@@H]4[C@@H]3OC(=O)C(C)C)/C(C)=C/C(C)=C/CC(C(C)O)OC2=O)O[C@H]1C (some centres unmarked) [TB1, 2-methylbenzylidene acetal]	–	–
7.09 ± 0.54 µM	5.99 ± 0.45 µM	4.99 ± 0.22 µM	CCc1c(Cl)c(O)c(Cl)c(O)c1C(=O)O[C@@H]1[C@@H](O)[C@@H](OC)[C@@H](OC/C2=C\C=C\CC(O)/C(C)=C/C(CC)C(O[C@@H]3OC(C)(C)[C@H]4OC(c5cccc(OC)c5)O[C@@H]4[C@@H]3OC(=O)C(C)C)/C(C)=C/C(C)=C/CC(C(C)O)OC2=O)O[C@H]1C (some centres unmarked) [TB3, 3-methoxylbenzylidene acetal]	–	–
6.81 ± 0.01 µM	5.69 ± 0.24 µM	5.66 ± 0.62 µM	CCc1c(Cl)c(O)c(Cl)c(O)c1C(=O)O[C@@H]1[C@@H](O)[C@@H](OC)[C@@H](OC/C2=C\C=C\CC(O)/C(C)=C/C(CC)C(O[C@@H]3OC(C)(C)[C@H]4OC(c5ccccc5Cl)O[C@@H]4[C@@H]3OC(=O)C(C)C)/C(C)=C/C(C)=C/CC(C(C)O)OC2=O)O[C@H]1C (some centres unmarked) [TB4, 2-chlorobenzylidene acetal]	–	–
5.95 ± 0.46 µM	5.6 ± 0.37 µM	4.66 ± 0.57 µM	CCc1c(Cl)c(O)c(Cl)c(O)c1C(=O)O[C@@H]1[C@@H](O)[C@@H](OC)[C@@H](OC/C2=C\C=C\CC(O)/C(C)=C/C(CC)C(O[C@@H]3OC(C)(C)[C@H]4OC(c5ccccc5C(F)(F)F)O[C@@H]4[C@@H]3OC(=O)C(C)C)/C(C)=C/C(C)=C/CC(C(C)O)OC2=O)O[C@H]1C (some centres unmarked) [TB5, 2-trifluoromethylbenzylidene acetal]	–	–
6.19 ± 0.68 µM	5.3 ± 0.49 µM	4.8 ± 0.46 µM	CCc1c(Cl)c(O)c(Cl)c(O)c1C(=O)O[C@@H]1[C@@H](O)[C@@H](OC)[C@@H](OC/C2=C\C=C\CC(O)/C(C)=C/C(CC)C(O[C@@H]3OC(C)(C)[C@H]4OC(c5ccc(N(CC)CC)cc5OC)O[C@@H]4[C@@H]3OC(=O)C(C)C)/C(C)=C/C(C)=C/CC(C(C)O)OC2=O)O[C@H]1C (some centres unmarked) [TB7, 4-N,N-diethylamino-2-methoxybenzylidene acetal]	–	–
5.78 ± 0.81 µM	5.76 ± 0.32 µM	4.04 ± 1.09 µM	CCc1c(Cl)c(O)c(Cl)c(O)c1C(=O)O[C@@H]1[C@@H](O)[C@@H](OC)[C@@H](OC/C2=C\C=C\CC(O)/C(C)=C/C(CC)C(O[C@@H]3OC(C)(C)[C@H]4OC(c5cc(C(C)(C)C)c(O)c(C(C)(C)C)c5)O[C@@H]4[C@@H]3OC(=O)C(C)C)/C(C)=C/C(C)=C/CC(C(C)O)OC2=O)O[C@H]1C (some centres unmarked) [TB8, 4,5-tert-dibutyl-4-hydroxybenzylidene acetal]	–	–
8.39 ± 1 µM	8.54 ± 1.03 µM	5.56 ± 0.57 µM	tiacumicin B [tiacumicin B (TB), reference compound]	–	–

Molecule	IC50 (MCF7 breast cancer cells)	IC50 [1]	IC50 [2]	IC50 value compared with tamoxifen, MCF7 (MCF7 breast cancer cells; statement in words)	IC50 value compared with tamoxifen, HeLa ([1]; statement in words)
CCc1c(Cl)c(O)c(Cl)c(O)c1C(=O)O[C@@H]1[C@@H](O)[C@@H](OC)[C@@H](OC/C2=C\C=C\CC(O)/C(C)=C/C(CC)C(O[C@@H]3OC(C)(C)[C@H]4OC(c5cccc(O)c5)O[C@@H]4[C@@H]3OC(=O)C(C)C)/C(C)=C/C(C)=C/CC(C(C)O)OC2=O)O[C@H]1C (some centres unmarked) [TB2, 3-hydroxylbenzylidene acetal]	6.9 ± 0.36 µM	5.98 ± 0.22 µM	4.24 ± 0.05 µM	superior to that of tamoxifen	–
CCc1c(Cl)c(O)c(Cl)c(O)c1C(=O)O[C@@H]1[C@@H](O)[C@@H](OC)[C@@H](OC/C2=C\C=C\CC(O)/C(C)=C/C(CC)C(O[C@@H]3OC(C)(C)[C@H]4OC(c5ccc(N(CC)CC)cc5)O[C@@H]4[C@@H]3OC(=O)C(C)C)/C(C)=C/C(C)=C/CC(C(C)O)OC2=O)O[C@H]1C (some centres unmarked) [TB6, 4-N,N-diethylaminobenzylidene acetal]	5.98 ± 0.54 µM	5.56 ± 0.13 µM	4.77 ± 0.51 µM	–	superior to that of tanoxifen
